In paper PMC4501059, “Responding to the challenge of untreatable gonorrhea: ETX0914, a first-in-class agent with a distinct mechanism-of-action against bacterial Type II topoisomerases” (Scientific Reports, 2015):
≈ marks a conversion by molar mass, not a printed value. Read-outs that look alike come from different tables or passages of the source.

What was measured:
[1] = test system: Coagulase-negative Staphylococci; set-up: method as in ref 2 (supplement); settings: 1923 tested; ref 2 (supplement); cited from earlier work
[2] = Dog pharmacokinetics; format: in vivo, Beagle dog
Description: AZD0914 was analyzed in mouse, rat, dog, monkey plasma using a qualified method which was later validated for human plasma analysis. The validated human method is described below and is representative of the approach taken in other species. AZD0914 was determined in human plasma prepared with K2EDTA as an anticoagulant. AZD0914 and an internal standard (^13C2, ^15N2 AZD0914) were extracted from plasma with tert- butyl methyl ether. After evaporating to dryness under a stream of nitrogen, the residue was reconstituted and quantitated by reverse phase HPLC-MS/MS against a standard curve from 1.00 to 5000 ng/ml. Separation was achieved using a gradient which went from 55% to 85% methanol:acetonitrile (1:1) containing 0.2% formic acid as mobile phase B and 0.2% formic acid in water as mobile phase A at a flow rate of 0.60 ml/min through a Phenomonex Gemini C18 column (50 x 2.0 mm column, […]) heated using a Shimadzu CTO-20AC set to 40 °C. AZD0914 was detected in multiple reaction monitoring (MRM) mode by positive ion electrospray ionization using a Sciex API5500 (Toronto, Canada) mass spectrometer. The ion spray voltage was set to 5500 V and turboionspray temperature was 650 °C. AZD0914 was quantitated using the MRM transition 488.2 → 348.2 using a collision energy of 29 eV. The internal standard, (^13C2, ^15N2 AZD0914), was monitored using identical conditions except for the MRM transition of 492.2 → 348.2.

[3] = CV dog telemetry (single dose, iv); settings: for Cmax: plasma
[4] = 28 day oral toxicology study, rat; format: in vivo, Han Wistar rat; settings: for NOAEL at 28 days: in vivo
Description: The following dosing formulation for rat and dog 28 day PO studies was used: a 100 mg/mL stock of ETX0914 in 5% dextrose and 2.5M meglumine adjusted to pH 9 using 5M HCl or 2.5M meglumine. The dosing formulations were diluted as required with phosphate buffered saline and dispensed daily. […] A control group of 10 male and 10 females were given the vehicle only. An additional 3 animals per sex were allocated to each group for toxicokinetics wherein blood samples (1 mL) from the tail vein pre-trial and on Day 27 were collected. […] Animals were terminated by exposure to CO2. The following were assessed: clinical observations, body weight, food consumption, body temperature, hematology, plasma chemistry, toxicokinetics and gross and microscopic pathology.

[5] = test system: Mycoplasma genitalium; set-up: method as in ref 3 (supplement); settings: 11 tested; ref 3 (supplement); cited from earlier work
[6] = test system: Staphylococcus aureus; settings: cited from earlier work
[7] = test system: S. aureus ARC516; experiment: MIC (CLSI broth microdilution); format: cell-based
[8] = target: Kv1.5 (Homo sapiens, UniProt P22460); experiment: In vitro ion channel function; format: cell-based; settings: Ikr/Kv1.5 IC50, Rapidly activating K^+ delayed rectifier
Sequence of Kv1.5 (P22460 whole entry): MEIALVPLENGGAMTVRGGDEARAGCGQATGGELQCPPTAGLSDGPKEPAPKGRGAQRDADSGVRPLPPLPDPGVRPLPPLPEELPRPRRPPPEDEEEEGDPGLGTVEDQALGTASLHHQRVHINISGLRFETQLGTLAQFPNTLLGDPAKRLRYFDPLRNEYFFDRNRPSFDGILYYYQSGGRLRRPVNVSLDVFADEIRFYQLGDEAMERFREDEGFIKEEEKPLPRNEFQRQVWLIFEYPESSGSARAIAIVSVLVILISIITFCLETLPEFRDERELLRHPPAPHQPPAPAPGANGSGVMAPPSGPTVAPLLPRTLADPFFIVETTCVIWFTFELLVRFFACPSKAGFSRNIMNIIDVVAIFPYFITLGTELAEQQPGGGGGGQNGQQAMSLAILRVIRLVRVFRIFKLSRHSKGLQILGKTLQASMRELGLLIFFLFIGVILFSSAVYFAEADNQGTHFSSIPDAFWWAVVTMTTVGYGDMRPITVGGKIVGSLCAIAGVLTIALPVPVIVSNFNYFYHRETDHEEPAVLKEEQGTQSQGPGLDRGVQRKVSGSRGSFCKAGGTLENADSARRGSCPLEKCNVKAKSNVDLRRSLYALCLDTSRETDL
Description: (§1) Supplement srep11827-s1.doc, table 3 | column: Table S2: In vitro ion channel function IC50 (µM)

[9] = target: hNav1.5 (Homo sapiens, UniProt Q14524); experiment: In vitro ion channel function; format: cell-based; settings: hNav1.5 IC50, Initiation of cardiac action potential/QRS interval
Sequence of hNav1.5 (Q14524 whole entry): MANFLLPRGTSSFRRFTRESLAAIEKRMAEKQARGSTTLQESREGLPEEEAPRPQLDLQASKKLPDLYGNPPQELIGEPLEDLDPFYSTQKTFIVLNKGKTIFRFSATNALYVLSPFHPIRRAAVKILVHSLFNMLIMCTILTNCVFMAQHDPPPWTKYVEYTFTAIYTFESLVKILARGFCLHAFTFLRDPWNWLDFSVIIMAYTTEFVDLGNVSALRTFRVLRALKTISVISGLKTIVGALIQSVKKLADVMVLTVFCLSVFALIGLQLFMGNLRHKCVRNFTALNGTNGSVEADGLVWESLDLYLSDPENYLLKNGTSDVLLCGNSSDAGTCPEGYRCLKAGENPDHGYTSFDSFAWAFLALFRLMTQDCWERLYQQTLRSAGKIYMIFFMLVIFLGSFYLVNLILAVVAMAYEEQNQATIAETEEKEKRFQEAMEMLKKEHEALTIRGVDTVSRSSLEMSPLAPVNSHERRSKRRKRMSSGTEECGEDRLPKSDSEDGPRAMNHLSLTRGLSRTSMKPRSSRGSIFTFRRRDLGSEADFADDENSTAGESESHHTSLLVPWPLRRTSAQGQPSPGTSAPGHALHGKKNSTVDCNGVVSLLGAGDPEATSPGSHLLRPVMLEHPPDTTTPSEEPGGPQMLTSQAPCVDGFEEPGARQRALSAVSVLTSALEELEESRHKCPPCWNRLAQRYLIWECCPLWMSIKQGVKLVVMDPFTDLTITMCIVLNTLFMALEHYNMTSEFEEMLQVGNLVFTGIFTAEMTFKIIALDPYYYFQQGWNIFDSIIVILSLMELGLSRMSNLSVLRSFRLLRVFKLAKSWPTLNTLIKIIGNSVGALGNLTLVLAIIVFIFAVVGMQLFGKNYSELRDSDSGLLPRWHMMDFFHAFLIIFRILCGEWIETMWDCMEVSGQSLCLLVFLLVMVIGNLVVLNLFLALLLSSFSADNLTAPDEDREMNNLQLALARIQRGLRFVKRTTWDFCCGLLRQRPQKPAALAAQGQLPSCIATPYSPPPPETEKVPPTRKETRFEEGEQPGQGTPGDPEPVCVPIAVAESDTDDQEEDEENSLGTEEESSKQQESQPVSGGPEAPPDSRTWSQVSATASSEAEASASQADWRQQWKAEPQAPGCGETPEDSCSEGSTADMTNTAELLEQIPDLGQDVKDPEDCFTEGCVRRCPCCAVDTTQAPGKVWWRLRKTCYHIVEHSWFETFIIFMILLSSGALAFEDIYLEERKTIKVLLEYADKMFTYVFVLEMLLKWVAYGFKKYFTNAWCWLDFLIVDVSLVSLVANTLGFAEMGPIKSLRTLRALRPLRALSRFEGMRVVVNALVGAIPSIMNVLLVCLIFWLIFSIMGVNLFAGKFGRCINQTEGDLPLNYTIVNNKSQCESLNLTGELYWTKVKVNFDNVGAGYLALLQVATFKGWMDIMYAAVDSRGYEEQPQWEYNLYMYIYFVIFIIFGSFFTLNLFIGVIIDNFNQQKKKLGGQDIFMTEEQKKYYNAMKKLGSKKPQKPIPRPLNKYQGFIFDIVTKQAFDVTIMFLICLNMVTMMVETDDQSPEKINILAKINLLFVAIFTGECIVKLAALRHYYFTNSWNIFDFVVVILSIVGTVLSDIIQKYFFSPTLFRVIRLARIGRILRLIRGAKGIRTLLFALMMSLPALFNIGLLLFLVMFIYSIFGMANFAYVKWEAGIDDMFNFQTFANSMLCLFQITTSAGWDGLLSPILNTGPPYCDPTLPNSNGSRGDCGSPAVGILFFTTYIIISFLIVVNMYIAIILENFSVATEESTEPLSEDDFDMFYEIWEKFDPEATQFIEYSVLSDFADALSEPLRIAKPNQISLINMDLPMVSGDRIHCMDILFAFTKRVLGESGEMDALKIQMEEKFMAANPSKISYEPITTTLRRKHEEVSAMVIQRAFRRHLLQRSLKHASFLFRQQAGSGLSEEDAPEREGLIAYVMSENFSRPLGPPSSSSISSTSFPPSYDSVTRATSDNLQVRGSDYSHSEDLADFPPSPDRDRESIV
Description: as §1

[10] = target: Iks/Kv7.1 (Homo sapiens, UniProt P51787); experiment: In vitro ion channel function; format: cell-based; settings: Iks/Kv7.1 IC50, Slowly activating K^+ delayed rectifier
Sequence of Iks/Kv7.1 (P51787 whole entry): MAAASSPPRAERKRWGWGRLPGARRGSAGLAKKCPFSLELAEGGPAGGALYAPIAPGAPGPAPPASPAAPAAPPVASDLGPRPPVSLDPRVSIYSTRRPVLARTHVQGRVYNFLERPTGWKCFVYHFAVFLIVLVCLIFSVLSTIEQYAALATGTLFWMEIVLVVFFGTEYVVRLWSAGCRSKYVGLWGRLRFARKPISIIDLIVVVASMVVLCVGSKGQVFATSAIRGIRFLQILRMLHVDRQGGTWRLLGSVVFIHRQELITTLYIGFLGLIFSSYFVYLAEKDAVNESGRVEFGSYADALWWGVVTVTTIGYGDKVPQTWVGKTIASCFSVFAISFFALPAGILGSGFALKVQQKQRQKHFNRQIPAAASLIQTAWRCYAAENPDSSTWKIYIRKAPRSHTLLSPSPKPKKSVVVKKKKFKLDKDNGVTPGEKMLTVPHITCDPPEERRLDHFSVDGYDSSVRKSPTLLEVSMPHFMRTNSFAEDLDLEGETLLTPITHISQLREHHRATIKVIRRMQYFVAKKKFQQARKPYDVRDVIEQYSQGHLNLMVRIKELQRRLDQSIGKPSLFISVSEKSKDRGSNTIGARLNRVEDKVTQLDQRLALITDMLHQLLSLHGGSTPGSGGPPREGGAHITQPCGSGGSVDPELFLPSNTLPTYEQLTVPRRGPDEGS
Description: as §1

[11] = test system: resistant isolates of S. aureus, S. pneumoniae and N. gonorrhoeae; format: cell-based
[12] = test system: S. aureus AP607004 (MRQR); experiment: MIC (CLSI broth microdilution); format: cell-based
[13] = test system: MRSA ATCC33591; experiment: MIC (modal, CLSI broth microdilution); format: cell-based, S. aureus; settings: Staphylococcus aureus, read-out: Modal MIC
[14] = test system: Neisseria gonorrhoeae; settings: cited from earlier work
[15] = plasma protein binding, rat; format: in vitro ADME; settings: in vitro at 1-50 µM
Description: Supplement srep11827-s1.doc, table 4 | column: Han-Wister rat (male)

[16] = test system: N. gonorrhoeae; experiment: clinical PK/PD magnitude, gonococcal infection
[17] = test system: mouse lymphoma cells; experiment: in vitro mouse micronucleus aberration assay (MMA); format: cell-based; settings: in vitro
Description: In vitro toxicology. Experiments for assessing micronuclei in mouse lymphoma cells^19 myeloid cytotoxicity^20 and erythroid cytotoxicity^21 were performed as described previously.

[18] = test system: S. pneumoniae ATCC49619; experiment: MIC (CLSI broth microdilution); format: cell-based
[19] = test system: Chlamydia trachomatis; set-up: method as in ref 3 (supplement); settings: 10 tested; ref 3 (supplement); cited from earlier work
[20] = test system: N. gonorrhoeae ARC4676 (QR); format: cell-based
[21] = 11640 tested, ref 2 (supplement)
[22] = 473 tested, ref 4-6 (supplement)

Structure (SMILES): C[C@@H]1CN2c3c(cc4c(N5C(=O)OC[C@@H]5C)noc4c3F)CC3(C(=O)NC(=O)NC3=O)[C@H]2[C@H](C)O1 [ETX0914]
- MIC90 [1]: 0.25^2 µg/ml
- MIC Range [1]: 0.015 to 2.0 µg/mL
- Ka ([2]; Beagle dog (male)): 1.2 h⁻¹
- Dog F ([2]; beagle, dog, plasma): 71%
- clearance ([2]; beagle, dog, plasma): 4 mL/min/kg
- clearance ([2]; plasma, Beagle dog (male), IV 2.5 mg/kg, read-out: Clp (IV)): 4 mL/min/kg
- half-life ([2]; plasma, Beagle dog (male), IV 2.5 mg/kg, read-out: T1/2 (IV) (converted)): 3 h
- Vd ([2]; plasma, Beagle dog (male), IV 2.5 mg/kg, read-out: Vss (IV)): 0.8 L/kg
- bioavailability ([2]; plasma, Beagle dog (male), IV 2.5 / PO 5 mg/kg): 71%
- Cmax ([2]; plasma, Beagle dog (male), PO 5 mg/kg): 7.1 µM
- half-life ([2]; plasma, Beagle dog (male), PO 5 mg/kg, read-out: T1/2 (PO) (converted)): 3.1 h
- NOEL ([3]; CV dog telemetry, single dose, iv): 50 mg/kg/day
- cardiovascular effects ([3]; IV telemetry dog study, 100 mg/kg): decreases in blood pressure, contractility and PR interval and an increase in the heart rate
- other ECG intervals ([3]; dog): no changes to other ECG intervals including QTc or QRS
- Cmax ([3]; dog, iv, 50 mg/kg): 63 µg/mL
- Cmax ([3]; dog, iv, 100 mg/kg): 160 µg/mL
- Salient Pathology Findings ([3]; single dose iv, 100 mg/kg): Emesis Increase in cardiac contractility\relaxation and heart rate Decrease in systolic & diastoloic blood pressure Orthostatic hypertension
- Salient Pathology Findings ([4]; 1 month rat (po), 500 mg/kg/day): Reduced activity, pilo-erection, irregular respiration Seminal vesicle: secretory depletion, atrophy Epididymis: cellular debris (minimal) Spleen: increased congestion/haematopoiesis Cecum & rectum: mucosal hyperplasia
- Salient Pathology Findings ([4]; 1 month rat (po), 1000 mg/kg/day): As above & testes tubular degeneration partially reversible 3 months post dosing
- AUC(0-t) ([4]; both sexes, Han Wistar, blood, oral, rat, 200 mg/kg, day 27, read-out: AUC24h at NOAEL): 1070 µg·h/mL
- Cmax ([4]; both sexes, Han Wistar, blood, oral, rat, 200 mg/kg, day 27, read-out: Cmax at NOAEL): 107 µg/mL
- NOAEL at 28 days ([4]; both sexes, Han Wistar, oral, rat, 28 days): 200 mg/kg
- NOAEL at 28 days ([4]; both sexes, Han Wistar, 1 month rat (po)): 200 mg/kg/day
- AUC ([4]; both sexes, Han Wistar, plasma, 1 month rat (po), 200 mg/kg/day): 1100 ± 130 µg·h/mL
- Cmax ([4]; both sexes, Han Wistar, plasma, 1 month rat (po), 200 mg/kg/day, read-out: Cmax (±SD)): 110 ± 30 µg/mL
- AUC ([4]; both sexes, Han Wistar, plasma, 1 month rat (po), 500 mg/kg/day): 2460 ± 470 µg·h/mL
- Cmax ([4]; both sexes, Han Wistar, plasma, 1 month rat (po), 500 mg/kg/day, read-out: Cmax (±SD)): 170 ± 30 µg/mL
- AUC ([4]; both sexes, Han Wistar, plasma, 1 month rat (po), 1000 mg/kg/day): 3820 ± 650 µg·h/mL
- Cmax ([4]; both sexes, Han Wistar, plasma, 1 month rat (po), 1000 mg/kg/day, read-out: Cmax (±SD)): 260 ± 55 µg/mL
- margin of fAUC at rat NOAEL to efficacious fAUC in mouse thigh model ([4]; both, Han Wistar, rat, plasma, oral, 200 mg/kg): 13 fold
- haematology or platelet count at the NOAEL ([4]; rat): no significant changes in haematology or platelet count
- tolerated dose ([4]; rat, oral, 28 days): up to 1000 mg/kg/day
- MIC90 [5]: 1.0^3 µg/ml
- MIC Range [5]: 0.5 to 1.0 µg/mL
- MIC90 [6, 21]: 0.25^2 µg/ml
- MIC Range [6, 21]: ≤ 0.008 to 0.5 µg/mL
- MIC90, skin infection (S. aureus) ([6]; Table 2): 0.25 µg/mL (≈ 0.513 µM)
- MIC: S. aureus ARC516 [7]: 0.125 µg/mL (≈ 0.256 µM)
- MIC ([7]; Staphylococcus aureus, MSSA, read-out: Modal MIC): 0.0625 µg/mL (≈ 0.128 µM)
- IC50 [8]: > 333 µM
- IC50 [9]: > 333 µM
- IC50 [10]: > 333 µM
- susceptibility of GyrB\ParE mutants with reduced novobiocin susceptibility ([11]; S. aureus ARC3445, S. pneumoniae ARC2800): fully susceptible
- cross-resistance of NBTI resistant S. aureus mutant ARC2796 ([11]; derived from ARC516): not cross-resistant
- MIC: S. aureus AP607004 (MRQR) [12]: 0.5 µg/mL (≈ 1.03 µM)
- MIC [13]: 0.125 µg/mL (≈ 0.256 µM)
- MIC90 [14, 22]: 0.125^4-6 µg/ml
- MIC Range [14, 22]: 0.004 to 0.25 µg/mL
- MIC90, gonococcal infection (N. gonorrhoeae) ([14]; Table 2, first entry of the cell (ciprofloxacin: 250 mg UID line)): 0.12 µg/mL (≈ 0.246 µM)
- PPB (%free) [15]: 19.1±1.1 %free
- predicted efficacious mean AUC in humans [16]: 49 µg·h/mL
- Micronucleus NOEL [17]: > 400 µM
- MIC: S. pneumoniae ATCC49619 [18]: 0.125 µg/mL (≈ 0.256 µM)
- MIC90 [19]: 0.25^3 µg/ml
- MIC Range [19]: 0.06 to 0.5 µg/mL
- MIC: N. gonorrhoeae ARC4676 (QR) [20]: 0.125 µg/mL (≈ 0.256 µM)
